# Results reported in PubChem BioAssay (NCI).
#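 Protocol summary: plate cells (96-well), add compound at 5 concentrations, incubate 48 h, interpolate endpoints linearly. GI50 = concentration required for 50% inhibition of growth. TGI marks complete inhibition of growth.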
# Experiments:
# Experiment in all cases: NCI tumour cell line growth inhibition, 48 h
# OVCAR-4 ovarian = test system: OVCAR-4 ovarian
# HCT-116 colon = test system: HCT-116 colon
# HS 578T breast = test system: HS 578T breast
# K-562 leukemia = test system: K-562 leukemia
# HL-60(TB) leukemia = test system: HL-60(TB) leukemia
# NCI/ADR-RES ovarian = test system: NCI/ADR-RES ovarian
# CAKI-1 renal = test system: CAKI-1 renal
# TK-10 renal = test system: TK-10 renal
# MDA-MB-435 = test system: MDA-MB-435
# SF-539 CNS = test system: SF-539 CNS
# HOP-62 NSCLC = test system: HOP-62 NSCLC
# RPMI-8226 leukemia = test system: RPMI-8226 leukemia
# T-47D breast = test system: T-47D breast
# A498 renal = test system: A498 renal
# SN12C renal = test system: SN12C renal
# SK-MEL-28 melanoma = test system: SK-MEL-28 melanoma
# U251 CNS = test system: U251 CNS
# UO-31 renal = test system: UO-31 renal
# COLO 205 colon = test system: COLO 205 colon
# OVCAR-8 ovarian = test system: OVCAR-8 ovarian
# HT29 colon = test system: HT29 colon
# SW-620 colon = test system: SW-620 colon
# NCI-H460 lung = test system: NCI-H460 lung
# IGROV1 ovarian = test system: IGROV1 ovarian
# HCC-2998 colon = test system: HCC-2998 colon
# A549 NSCLC = test system: A549 NSCLC
# SF-295 CNS = test system: SF-295 CNS
# SR leukemia = test system: SR leukemia
# SNB-19 CNS = test system: SNB-19 CNS
# HCT-15 colon = test system: HCT-15 colon
# NCI-H226 lung = test system: NCI-H226 lung
# PC-3 prostate = test system: PC-3 prostate
# DU-145 prostate = test system: DU-145 prostate
# OVCAR-3 ovarian = test system: OVCAR-3 ovarian
# NCI-H23 lung = test system: NCI-H23 lung
# HOP-92 NSCLC = test system: HOP-92 NSCLC
# UACC-257 melanoma = test system: UACC-257 melanoma
# OVCAR-5 ovarian = test system: OVCAR-5 ovarian
# MCF7 breast = test system: MCF7 breast
# ACHN renal = test system: ACHN renal
# 786-0 renal = test system: 786-0 renal
# LOX IMVI melanoma = test system: LOX IMVI melanoma
# MALME-3M melanoma = test system: MALME-3M melanoma
# KM12 colon = test system: KM12 colon
# BT-549 breast = test system: BT-549 breast
# M14 melanoma = test system: M14 melanoma
# SF-268 CNS = test system: SF-268 CNS
# MDA-MB-231 breast = test system: MDA-MB-231 breast
# SK-MEL-5 melanoma = test system: SK-MEL-5 melanoma
# NCI-H522 lung = test system: NCI-H522 lung
# EKVX NSCLC = test system: EKVX NSCLC
# SK-MEL-2 melanoma = test system: SK-MEL-2 melanoma
# CCRF-CEM leukemia = test system: CCRF-CEM leukemia
# SNB-75 CNS = test system: SNB-75 CNS
# UACC-62 melanoma = test system: UACC-62 melanoma
# RXF 393 renal = test system: RXF 393 renal
smiles,measurement,setting,value
Nn1c2c(c3ccccc3c1=O)C(=O)c1ccccc1-2,GI50,OVCAR-4 ovarian,> 50 µM
same,TGI,OVCAR-4 ovarian,> 50 µM
same,GI50,HCT-116 colon,> 50 µM
same,TGI,HCT-116 colon,> 50 µM
same,GI50,HS 578T breast,18.4 µM
same,TGI,HS 578T breast,> 50 µM
same,GI50,K-562 leukemia,> 50 µM
same,TGI,K-562 leukemia,> 50 µM
same,GI50,HL-60(TB) leukemia,> 50 µM
same,TGI,HL-60(TB) leukemia,> 50 µM
same,GI50,NCI/ADR-RES ovarian,> 50 µM
same,TGI,NCI/ADR-RES ovarian,> 50 µM
same,GI50,CAKI-1 renal,> 50 µM
same,TGI,CAKI-1 renal,> 50 µM
same,GI50,TK-10 renal,18.1 µM
same,TGI,TK-10 renal,> 50 µM
same,GI50,MDA-MB-435,> 50 µM
same,TGI,MDA-MB-435,> 50 µM
same,GI50,SF-539 CNS,27.9 µM
same,TGI,SF-539 CNS,> 50 µM
same,GI50,HOP-62 NSCLC,24.5 µM
same,TGI,HOP-62 NSCLC,> 50 µM
same,GI50,RPMI-8226 leukemia,> 50 µM
same,TGI,RPMI-8226 leukemia,> 50 µM
same,GI50,T-47D breast,> 50 µM
same,TGI,T-47D breast,> 50 µM
same,GI50,A498 renal,> 50 µM
same,TGI,A498 renal,> 50 µM
same,GI50,SN12C renal,> 50 µM
same,TGI,SN12C renal,> 50 µM
same,GI50,SK-MEL-28 melanoma,> 50 µM
same,TGI,SK-MEL-28 melanoma,> 50 µM
same,GI50,U251 CNS,20.5 µM
same,TGI,U251 CNS,> 50 µM
same,GI50,UO-31 renal,> 50 µM
same,TGI,UO-31 renal,> 50 µM
same,GI50,COLO 205 colon,> 50 µM
same,TGI,COLO 205 colon,> 50 µM
same,GI50,OVCAR-8 ovarian,26.7 µM
same,TGI,OVCAR-8 ovarian,> 50 µM
same,GI50,HT29 colon,> 50 µM
same,TGI,HT29 colon,> 50 µM
same,GI50,SW-620 colon,> 50 µM
same,TGI,SW-620 colon,> 50 µM
same,GI50,NCI-H460 lung,40.5 µM
same,TGI,NCI-H460 lung,> 50 µM
same,GI50,IGROV1 ovarian,> 50 µM
same,TGI,IGROV1 ovarian,> 50 µM
same,GI50,HCC-2998 colon,> 50 µM
same,TGI,HCC-2998 colon,> 50 µM
same,GI50,A549 NSCLC,> 50 µM
same,TGI,A549 NSCLC,> 50 µM
same,GI50,SF-295 CNS,30.1 µM
same,TGI,SF-295 CNS,> 50 µM
same,GI50,SR leukemia,31 µM
same,TGI,SR leukemia,> 50 µM
same,GI50,SNB-19 CNS,20.9 µM
same,TGI,SNB-19 CNS,> 50 µM
same,GI50,HCT-15 colon,> 50 µM
same,TGI,HCT-15 colon,> 50 µM
same,GI50,NCI-H226 lung,48.3 µM
same,TGI,NCI-H226 lung,> 50 µM
same,GI50,PC-3 prostate,> 50 µM
same,TGI,PC-3 prostate,> 50 µM
same,GI50,DU-145 prostate,> 50 µM
same,TGI,DU-145 prostate,> 50 µM
same,GI50,OVCAR-3 ovarian,> 50 µM
same,TGI,OVCAR-3 ovarian,> 50 µM
same,GI50,NCI-H23 lung,> 50 µM
same,TGI,NCI-H23 lung,> 50 µM
same,GI50,HOP-92 NSCLC,> 50 µM
same,TGI,HOP-92 NSCLC,> 50 µM
same,GI50,UACC-257 melanoma,> 50 µM
same,TGI,UACC-257 melanoma,> 50 µM
same,GI50,OVCAR-5 ovarian,> 50 µM
same,TGI,OVCAR-5 ovarian,> 50 µM
same,GI50,MCF7 breast,20 µM
same,TGI,MCF7 breast,> 50 µM
same,GI50,ACHN renal,> 50 µM
same,TGI,ACHN renal,> 50 µM
same,GI50,786-0 renal,37.7 µM
same,TGI,786-0 renal,> 50 µM
same,GI50,LOX IMVI melanoma,> 50 µM
same,TGI,LOX IMVI melanoma,> 50 µM
same,GI50,MALME-3M melanoma,> 50 µM
same,TGI,MALME-3M melanoma,> 50 µM
same,GI50,KM12 colon,> 50 µM
same,TGI,KM12 colon,> 50 µM
same,GI50,BT-549 breast,> 50 µM
same,TGI,BT-549 breast,> 50 µM
same,GI50,M14 melanoma,> 50 µM
same,TGI,M14 melanoma,> 50 µM
same,GI50,SF-268 CNS,15.7 µM
same,TGI,SF-268 CNS,> 50 µM
same,GI50,MDA-MB-231 breast,> 50 µM
same,TGI,MDA-MB-231 breast,> 50 µM
same,GI50,SK-MEL-5 melanoma,> 50 µM
same,TGI,SK-MEL-5 melanoma,> 50 µM
same,GI50,NCI-H522 lung,30.1 µM
same,TGI,NCI-H522 lung,> 50 µM
same,GI50,EKVX NSCLC,> 50 µM
same,TGI,EKVX NSCLC,> 50 µM
same,GI50,SK-MEL-2 melanoma,> 50 µM
same,TGI,SK-MEL-2 melanoma,> 50 µM
same,GI50,CCRF-CEM leukemia,> 50 µM
same,TGI,CCRF-CEM leukemia,> 50 µM
same,GI50,SNB-75 CNS,11.6 µM
same,TGI,SNB-75 CNS,33.5 µM
same,GI50,UACC-62 melanoma,> 50 µM
same,TGI,UACC-62 melanoma,> 50 µM
same,GI50,RXF 393 renal,15.7 µM
same,TGI,RXF 393 renal,> 50 µM
